Assay results: patent publication US11351155B2, “Compositions and methods of modulating s-nitrosylation” (CASE WESTERN RESERVE UNIVERSITY, priority 2014, dated 2022)

Legend:
[1] = test system: intact yeast cells; test: SNO-RAC/iTRAQ identification of SNO-proteins in treated intact yeast; assay type: cell-based, yeast (S. cerevisiae); details: intact cells treated with 100 μM for 2 hr
Experimental: Protein S-nitrosylation was assessed by the SNO-RAC assay, and differences in the profile of protein S-nitrosylation in WT versus adh6Δ yeast (under basal growth conditions and upon treatment of cells with EtCysNO) were quantified by iTRAQ labeling.
For analysis in yeast, cells were grown to absorbance 600 nm=1.0 and lysed by bead beating in lysis buffer (20 mM bis-tris propane, pH 7.0, 50 mM NaCl, 100 mM EDTA, 100 μM DTPA, 1 mM PMSF and protease inhibitor cocktail (Roche)). The lysate was centrifuged at 20,000 g for 10 min and the supernatant was adjusted to 1 mg/ml protein and retained for analysis. For analysis of SNO-proteins by mercury-coupled-photolysis-chemiluminescence, samples were processed as previously described. […] Eluates were analyzed by SDS-PAGE followed by Western blotting for erg10 (see below) or, for mass spectrometric analysis, individual lanes were excised from the gel and subjected to trypsin digest prior to processing for LC/MS-MS (see below). […]
Prior to analysis by LC-MS/MS, samples were passed through a C18 spin column (Thermo Pierce, Rockford, Ill.) and reconstituted in 0.1% formic acid. […] For peptide identification and quantification using iTRAQ reporter ions, MS analysis was performed using a hybrid linear ion trap Orbitrap Velos mass spectrometer (LTQ-Orbitrap Velos, Thermo, Waltham, Mass.). […]

[2] = test system: WT and adh6Δ yeast; test: Metabolomic analysis of mevalonate, CoA and acetyl-CoA in treated yeast; assay type: cell-based, yeast (S. cerevisiae); details: 2 hr
Experimental: In extracts of WT and adh6Δ yeast (untreated and following treatment with EtCysNO), mevalonate, CoA and acetyl-CoA were separated and quantified by GC-MS (mevalonate) or LC-MS/MS (CoA, acetyl-CoA).
Yeast cells grown to mid-log phase (absorbance 600 nm=0.4-0.6) were left untreated or treated with EtCysNO (100 μM) for 2 hrs. Cells were harvested and washed with ice-cold H2O containing 0.1 mM EDTA or DTPA and stored at −80° C. until further analysis. To the samples, 3 ml of MeOH: H2O (8:2) was added followed by addition of 100 μl of D4 (1 mM) citrate as an internal standard. Samples were homogenized for 1 minute and 1 ml of the subsequent homogenate was taken and centrifuged at 800 g for 20 minutes. Supernatant was dried by nitrogen gas. 60 μl of N,O-bistrifluoroacetaniide was added to the dried residue and incubated at 70° C. for 30 minutes. Analyses were carried out on an Agilent 5973 mass spectrometer, linked to a 6890 gas chromatograph system equipped with an autosampler. An Agilent VF-5MS capillary column (60 m×0.32 mm×0.25 μm) was used for chromatographic separation. The carrier gas was helium (1 ml/min) with a pulse pressure of 20.1 p.s.i. The injection was in splitless mode. The temperature for both inlet and transfer line was set at 300° C. The ion source and quadrupole temperature were set at 230 and 150° C. The GC temperature program was as follows: start at 80° C., hold for 1 min, and increase by 10° C./min to 300° C., and it remained at 300° C. for 9 min. Mevalonate and internal standard signals were monitored at its nominal m/z with SIM mode. The m/z monitored for mevalonate and internal standard: 349 and 469, respectively. All the masses were measured in Electron Impact Ion Source. The retention times of mevalonate and internal standard are 15.2 and 18.1 minutes, respectively.
Yeast cells grown to mid-log phase (absorbance 600 nm=0.4-0.6) were left untreated or treated with EtCysNO (500 μM) for 2 hrs. […]

In the case of `CCOC(=O)[C@@H](N)CSN=O` [EtCysNO, S-nitroso-cysteine ethyl ester], the “Number of SNO-proteins identified” value [1] is reported as 103, the “Change of mevalonate levels” value ([2]; adh6Δ yeast, 100 μM) is reported as “significant decrease” and the “Change of free CoA levels” value ([2]; yeast, 500 μM) is reported as “large decreases”. The “Change of acetyl-CoA levels” value ([2]; yeast, 500 μM, increase larger in adh6Δ versus WT cells) was “increased”.
